Test results taken from patent US8247211B2, “Glycopeptide antibiotics” (American Cyanamid Company, priority 2001, dated 2012).
In brackets after ≈: the same amount, converted by molar mass.

Key:
Assay in all cases: In vitro antibacterial evaluation: minimum inhibitory concentration (MIC), broth dilution method
Assay type in all cases: cell-based
Streptococcus sp. = settings: 18 hours at 35° C.
Summary of the method: (§1)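 Using Muller-Hinton II […] and an inoculum of 5×10^5 CFU/mL, antibiotic dilutions from 64 down to 0.06 μg/mL were tested following NCCLS M7-A2. The MIC is the lowest concentration inhibiting growth, including in methicillin-, penicillin- or vancomycin-resistant clinical isolates.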

Escherichia coli = settings: 18 hours at 35° C.
Summary of the method: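 Following NCCLS approved standard M7-A2, compounds are serially diluted from 64 to 0.06 μg/mL in Muller-Hinton II […] and inoculated at 5×10^5 CFU/mL; the MIC is the minimum concentration at which growth is inhibited.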

Staphylococcus sp. = settings: for MIC Staphylococcus haemolyticus (GC 4546): strain GC 4546
Summary of the method: as §1

Enterococcus sp. = settings: 18 hours at 35° C.
Summary of the method: as §1

[1] = broth dilution, inoculum 5×10^5 CFU/mL

`CC(c1ccccc1)C1NC(=O)CNC(=O)C(CO)NC(=O)C(C(O)C2CNC(=N)N2C2OC(CO)C(O)C(O)C2O)NC(=O)C(C(O)C2CNC(=N)N2)NC(=O)C(Cc2ccc(OC3OC(CO)C(OC4OC(CO)C(O)C5OC(c6ccccc6)OC45)C(O)C3O)cc2)NC1=O` (single isomer, unassigned) [Example 104b, Cyclo[glycyl-β-methylphenylalanyl-O-[4-O-(2,3-O-benzylidenehexopyranosyl)hexopyranosyl]-tyrosyl-3(2-iminoimidazolidin-4-yl)seryl-3-(3-hexopyranosyl-2-iminoimidazolidin-4-yl)-serylseryl]] was tested, and the “MIC Streptococcus agalactiae (GC 4564)” value (Streptococcus sp.; broth dilution, 5×10^5 CFU/mL) was 0.5 µg/mL (≈ 0.361 µM), the “MIC Streptococcus pneumoniae (GC 1894)” value (Streptococcus sp.; broth dilution, 5×10^5 CFU/mL) was 0.12 µg/mL (≈ 0.0867 µM) and the “MIC Streptococcus pneumoniae (GC 4565)” value (Streptococcus sp.; broth dilution, 5×10^5 CFU/mL) was 0.12 µg/mL (≈ 0.0867 µM). The “MIC Streptococcus pneumonine (ATCC 6301)” value (Streptococcus sp.; broth dilution, 5×10^5 CFU/mL) was 0.12 µg/mL (≈ 0.0867 µM), the “MIC Streptococcus pyogenes (GC 4563)” value (Streptococcus sp.; broth dilution, 5×10^5 CFU/mL) was 0.12 µg/mL (≈ 0.0867 µM) and the “MIC Escherichia coli (ATCC 25922)” value (Escherichia coli; 5×10^5 CFU/mL) was >0.5 µg/mL. The “MIC Escherichia coli (GC 4559)” value (Escherichia coli; 5×10^5 CFU/mL) was >0.5 µg/mL, the “MIC Escherichia coli (GC 4560)” value (Escherichia coli; 5×10^5 CFU/mL) was 0.5 µg/mL (≈ 0.361 µM) and the “MIC Staphylococcus aureus (ATCC 29213)” value (Staphylococcus sp.; strain ATCC 29213) was 0.5 µg/mL (≈ 0.361 µM). The “MIC Staphylococcus aureus (GC 1131)” value (Staphylococcus sp.; strain GC 1131) was 0.5 µg/mL (≈ 0.361 µM), the “MIC Staphylococcus aureus (GC 3051)” value (Staphylococcus sp.; strain GC 3051) was 0.5 µg/mL (≈ 0.361 µM) and the “MIC Staphylococcus aureus (GC 3053)” value (Staphylococcus sp.; strain GC 3053) was 0.5 µg/mL (≈ 0.361 µM). For the same compound, the “MIC Staphylococcus aureus (GC 4541)” value (Staphylococcus sp.; strain GC 4541) was 0.5 µg/mL (≈ 0.361 µM), the “MIC Staphylococcus aureus (GC 4542)” value (Staphylococcus sp.; strain GC 4542) was 0.5 µg/mL (≈ 0.361 µM) and the “MIC Staphylococcus aureus-SMITH (GC 4543)” value (Staphylococcus sp.; strain GC 4543, 18 hours at 35° C.) was 0.5 µg/mL (≈ 0.361 µM). For the same compound, the “MIC Staphylococcus aureus-SMITH (GC 4543)” value (Staphylococcus sp.; strain GC 4543, broth dilution, 18 hours at 35° C.) was 0.5 µg/mL (≈ 0.361 µM), the “MIC Staphylococcus aureus (GC 4544)” value (Staphylococcus sp.; strain GC 4544) was 0.5 µg/mL (≈ 0.361 µM) and the “MIC Staphylococcus aureus (GC 4545)” value (Staphylococcus sp.; strain GC 4545) was 0.5 µg/mL (≈ 0.361 µM). The “MIC Staphylococcus haemolyticus (GC 4546)” value (Staphylococcus sp.) was 0.5 µg/mL (≈ 0.361 µM), the “MIC Staphylococcus haemolyticus (GC 4546)” value (Staphylococcus sp.; broth dilution, 18 hours at 35° C.) was 0.5 µg/mL (≈ 0.361 µM) and the “MIC Coagulase Negative Staphylococcus (GC 4547)” value (Staphylococcus sp.; strain GC 4547) was 4 µg/mL (≈ 2.89 µM). For the same compound, the “MIC Coagulase Negative Staphylococcus (GC 4547)” value (Staphylococcus sp.; strain GC 4547, broth dilution, 18 hours at 35° C.) was 4 µg/mL (≈ 2.89 µM), the “MIC Coagulase Negative Staphylococcus (GC 4548)” value (Staphylococcus sp.; strain GC 4548) was 4 µg/mL (≈ 2.89 µM) and the “MIC Coagulase Negative Staphylococcus (GC 4548)” value (Staphylococcus sp.; strain GC 4548, broth dilution, 18 hours at 35° C.) was 4 µg/mL (≈ 2.89 µM). For the same compound, the “MIC Coagulase Negative Staphylococcus (GC 4549)” value (Staphylococcus sp.; strain GC 4549) was 4 µg/mL (≈ 2.89 µM), the “MIC Coagulase Negative Staphylococcus (GC 4549)” value (Staphylococcus sp.; strain GC 4549, broth dilution, 18 hours at 35° C.) was 4 µg/mL (≈ 2.89 µM) and the “MIC Coagulase Negative Staphylococcus (GC 4551)” value (Staphylococcus sp.; strain GC 4551) was 8 µg/mL (≈ 5.78 µM). The “MIC Coagulase Negative Staphylococcus (GC 4551)” value (Staphylococcus sp.; strain GC 4551, broth dilution, 18 hours at 35° C.) was 8 µg/mL (≈ 5.78 µM), the “MIC Coagulase Negative Staphylococcus (GC 6257)” value (Staphylococcus sp.; strain GC 6257) was 2 µg/mL (≈ 1.45 µM) and the “MIC Coagulase Negative Staphylococcus (GC 6257)” value (Staphylococcus sp.; strain GC 6257, broth dilution, 18 hours at 35° C.) was 2 µg/mL (≈ 1.45 µM). For the same compound, the “MIC Enterococccus avium (GC 4558)” value (Enterococcus sp.; broth dilution, 5×10^5 CFU/mL) was 0.5 µg/mL (≈ 0.361 µM), the “MIC Enterococccus faecalis (ATCC 29212)” value (Enterococcus sp.; broth dilution, 5×10^5 CFU/mL) was 0.5 µg/mL (≈ 0.361 µM) and the “MIC Enterococccus faecalis (GC 2691)” value (Enterococcus sp.; broth dilution, 5×10^5 CFU/mL) was 0.5 µg/mL (≈ 0.361 µM). For the same compound, the “MIC Enterococccus faecalis (GC 3059)” value (Enterococcus sp.; broth dilution, 5×10^5 CFU/mL) was 0.5 µg/mL (≈ 0.361 µM), the “MIC Enterococccus faecalis (GC 4552)” value (Enterococcus sp.; broth dilution, 5×10^5 CFU/mL) was 0.5 µg/mL (≈ 0.361 µM) and the “MIC Enterococccus faecalis (GC 4553)” value (Enterococcus sp.; broth dilution, 5×10^5 CFU/mL) was 0.5 µg/mL (≈ 0.361 µM). The “MIC Enterococccus faecalis (GC 4554)” value (Enterococcus sp.; broth dilution, 5×10^5 CFU/mL) was 0.5 µg/mL (≈ 0.361 µM), the “MIC Enterococccus faecalis (GC 6189)” value (Enterococcus sp.; broth dilution, 5×10^5 CFU/mL) was 0.5 µg/mL (≈ 0.361 µM) and the “MIC Enterococccus faecium (GC 2243)” value (Enterococcus sp.; broth dilution, 5×10^5 CFU/mL) was 0.5 µg/mL (≈ 0.361 µM). The “MIC Enterococccus faecium (GC 4556)” value (Enterococcus sp.; broth dilution, 5×10^5 CFU/mL) was 0.5 µg/mL (≈ 0.361 µM), the “MIC Enterococccus faecium (GC 4557)” value (Enterococcus sp.; broth dilution, 5×10^5 CFU/mL) was 0.5 µg/mL (≈ 0.361 µM) and the “MIC Enterococcus faecalis (GC 2242)” value (Enterococcus sp.; broth dilution, 5×10^5 CFU/mL) was 0.5 µg/mL (≈ 0.361 µM).
For `CC(c1ccccc1)C1NC(=O)CNC(=O)C(CO)NC(=O)C(CC2CNC(=N)N2C2OC(CO)C(O)C(O)C2O)NC(=O)C(CC2CNC(=N)N2)NC(=O)C(Cc2ccc(OC3OC(CO)C(OC4OC(CO)C(O)C(OCc5ccc(OCc6ccccc6)cc5)C4O)C(O)C3O)cc2)NC1=O` (stereo not shown) [Example 246b], the “MIC Streptococcus agalactiae (GC 4564)” value (Streptococcus sp.; Streptococcus agalactiae (GC 4564)) was 64 µg/mL (≈ 43.8 µM), the “MIC Streptococcus pneumoniae (ATCC 6301)” value (Streptococcus sp.; Streptococcus pneumoniae (ATCC 6301)) was 32 µg/mL (≈ 21.9 µM) and the “MIC Streptococcus pneumoniae (GC 1894)” value (Streptococcus sp.; Streptococcus pneumoniae (GC 1894)) was 32 µg/mL (≈ 21.9 µM). The “MIC Streptococcus pneumoniae (GC 4565)” value (Streptococcus sp.; Streptococcus pneumoniae (GC 4565)) was 64 µg/mL (≈ 43.8 µM), the “MIC Streptococcus pyogenes (GC 4563)” value (Streptococcus sp.; Streptococcus pyogenes (GC 4563)) was 64 µg/mL (≈ 43.8 µM) and the “MIC Streptococcus agalactiae (GC 4564)” value (Streptococcus sp.; [1]) was 64 µg/mL (≈ 43.8 µM). The “MIC Streptococcus pneumoniae (ATCC 6301)” value (Streptococcus sp.; [1]) was 32 µg/mL (≈ 21.9 µM), the “MIC Streptococcus pneumoniae (GC 1894)” value (Streptococcus sp.; [1]) was 32 µg/mL (≈ 21.9 µM) and the “MIC Streptococcus pneumoniae (GC 4565)” value (Streptococcus sp.; [1]) was 64 µg/mL (≈ 43.8 µM). For the same compound, the “MIC Streptococcus pyogenes (GC 4563)” value (Streptococcus sp.; [1]) was 64 µg/mL (≈ 43.8 µM), the “MIC Escherichia coli (GC 4560)” value (Escherichia coli; Escherichia coli (GC 4560)) was 32 µg/mL (≈ 21.9 µM) and the “MIC Coagulase Negative Staphylococcus (GC 4547)” value (Staphylococcus sp.; Coagulase Negative Staphylococcus (GC 4547), 18 hours at 35° C.) was 64 µg/mL (≈ 43.8 µM). The “MIC Coagulase Negative Staphylococcus (GC 4548)” value (Staphylococcus sp.; Coagulase Negative Staphylococcus (GC 4548), 18 hours at 35° C.) was 64 µg/mL (≈ 43.8 µM), the “MIC Coagulase Negative Staphylococcus (GC 4549)” value (Staphylococcus sp.; Coagulase Negative Staphylococcus (GC 4549), 18 hours at 35° C.) was 32 µg/mL (≈ 21.9 µM) and the “MIC Coagulase Negative Staphylococcus (GC 4551)” value (Staphylococcus sp.; Coagulase Negative Staphylococcus (GC 4551), 18 hours at 35° C.) was 64 µg/mL (≈ 43.8 µM). The “MIC Coagulase Negative Staphylococcus (GC 6257)” value (Staphylococcus sp.; Coagulase Negative Staphylococcus (GC 6257), 18 hours at 35° C.) was 64 µg/mL (≈ 43.8 µM), the “MIC Staphylococcus aureus (ATCC 29213)” value (Staphylococcus sp.; Staphylococcus aureus (ATCC 29213), 18 hours at 35° C.) was 64 µg/mL (≈ 43.8 µM) and the “MIC Staphylococcus aureus (GC 3051)” value (Staphylococcus sp.; Staphylococcus aureus (GC 3051), 18 hours at 35° C.) was 64 µg/mL (≈ 43.8 µM). The “MIC Staphylococcus aureus (GC 4541)” value (Staphylococcus sp.; Staphylococcus aureus (GC 4541), 18 hours at 35° C.) was 64 µg/mL (≈ 43.8 µM), the “MIC Staphylococcus aureus (GC 4542)” value (Staphylococcus sp.; Staphylococcus aureus (GC 4542), 18 hours at 35° C.) was 64 µg/mL (≈ 43.8 µM) and the “MIC Staphylococcus aureus (GC 4544)” value (Staphylococcus sp.; Staphylococcus aureus (GC 4544), 18 hours at 35° C.) was 64 µg/mL (≈ 43.8 µM). The “MIC Staphylococcus aureus (GC 4545)” value (Staphylococcus sp.; Staphylococcus aureus (GC 4545), 18 hours at 35° C.) was 64 µg/mL (≈ 43.8 µM), the “MIC Staphylococcus aureus-SMITH (GC 4543)” value (Staphylococcus sp.; Staphylococcus aureus-SMITH (GC 4543), 18 hours at 35° C.) was >64 µg/mL and the “MIC Enterococcus avium (GC 4558)” value (Enterococcus sp.; Enterococcus avium (GC 4558)) was 64 µg/mL (≈ 43.8 µM). The “MIC Enterococcus faecium (GC 4557)” value (Enterococcus sp.; Enterococcus faecium (GC 4557)) was 32 µg/mL (≈ 21.9 µM).
